According to ChEMBL document CHEMBL3507680, “University of Dundee, Gates Library screen for HepG2 cell viability”:

Experiment: Human HepG2 cell viability assay in 384 well format
Type: toxicity, cell-based
Design: dose 125 nL, time 70.5 hour; concentration not given beside the values
Conditions: HepG2 cells, read-out: Inhibition

SMILES | cytotoxicity at 70.5 h [%]
COc1cc(-c2cc(C3CCOC3)c(C#N)c(N)n2)ccc1O (centres undefined) | -6.12
COc1ccccc1[C@@H]1CN(Cc2csc(C(C)=O)c2)C[C@H]1C(=O)O | -3.94
COc1cccc(Cn2c(C)c(C)oc2=O)c1OC | 1.78
NC(=O)COc1ccc(CN2CCC(O)(CN3CCCCC3)C2)cc1Cl (centres undefined) | -12.1
Cc1ncsc1CCN(C)C(=O)c1ccc(CN2CCCCC2)cc1 | 0.585
CNC(=O)c1ccnc(N2CCCC(COc3cccc(C)c3)C2)c1 (centres undefined) | -20.4
Cc1n[nH]c(C)c1C(N)C(=O)NCCc1csc(C(C)C)n1 (centres undefined) | -11.3
COc1ccc(C2(C(=O)N3C[C@@H](C(=O)O)[C@H](C(C)C)C3)CC2)cc1 | -6.04
O=C(CCCn1cncn1)N1CCC2(CCCN(CC3CC3)C2=O)C1 (centres undefined) | 18.3
COc1ccc(NC(=O)N2CCC3(CC2)NC(=O)CC3C(=O)O)cc1Cl (centres undefined) | 13.1
CC(C)(C)c1ncc(C(=O)N2CCC(N3CCSCC3)CC2)c(O)n1 | -7.4
Cn1cc(CN(C(=O)C2COc3ccccc3C2)C2CC2)cn1 (centres undefined) | -9.16
CCn1cc(-c2cc(-c3cc(CN(C)C)cs3)nc(N)c2C#N)c(C)n1 | -6.34
CN1CCCC(CNS(=O)(=O)N2CCc3ccccc3C2)C1 (centres undefined) | -10.7
CN(C)S(=O)(=O)N1CC[C@]2(O)CCN(c3cc(C#N)ccn3)C[C@@H]2C1 | -7.65
O=C(NCCc1cscn1)c1coc(CN2CCOCC2)c1 | -8.02
COCc1ncc(CN2C[C@@H](C(=O)O)[C@H](C(C)C)C2)cn1 | 9.21
CCOc1ccc(-n2nc(C)c(CC(C)=O)c2C)cc1C(N)=O | -2.04
CC(C)c1cc(NCC2(Cn3cccn3)CC2)nc(N)n1 | -0.462
CCn1ccnc1-c1nccn1-c1ccccc1CN1CCOCC1 | -8.91
CC(C)Cn1cncc1CNC(=O)c1cccc(-n2cnnc2)c1 | 8.85
Cc1cc(CN2C[C@H]3CC[C@@H]2CN(C2Cc4ccccc4C2)C3)on1 | 3.93

SMILES | cytotoxicity at 70.5 h [%]
CCc1ccc(C(=O)N2CCC3(CCC(=O)N(CCN(C)C)C3)CC2)[nH]1 | -1.77
O=C(NCC(O)c1cccc(O)c1)C1CCN(C2CCCCC2)CC1 (centres undefined) | -11.8
Cc1cc2[nH]c(=O)oc2cc1S(=O)(=O)N1C[C@@H](N(C)C)[C@H](C(C)C)C1 | -10.7
CCN(CC)C(=O)[C@@H]1C[C@H](N)CN1c1noc(-c2ccccc2)n1 | -3.04
CC(C)N(CCO)C(=O)C1CCC(=O)N(CCc2ccc(Cl)cc2)C1 (centres undefined) | -1.21
COc1ccc(CN(CC2CCCO2)c2nc3c(s2)c(C)nn3C)cc1 (centres undefined) | 41.8
CC(C)Cc1cc(C(=O)NC(C)(C)c2nnc(N)s2)n(C)n1 | -6.76
CN(C)CC1(O)CCCN(C(=O)Cn2nc3ccccc3n2)CC1 (centres undefined) | 11.1
c1ccc(C(Cn2cnnc2)N2CCOCC2)nc1 (centres undefined) | 0.586
CNC(=O)c1cc(-n2ccnc2-c2cnc(N(C)C)nc2)ccc1OC | 3.46
Cc1cc2c(c(-c3cncc(C(=O)N4CCCC4)n3)c1)OC(CN)C2 (centres undefined) | -6.51
CSCC[C@H](NC(C)=O)c1nc(Cc2ccccc2)n[nH]1 | 6.58
CSc1nc(O)c(Cc2ccccc2)c(=O)n1-c1ccccc1 | -6.85
Cc1cc(CN(C)Cc2csc(-c3cccs3)n2)n[nH]1 | -1.87
CCn1ncnc1CN(C/C=C/c1ccccc1)CCOC | -1.42
COc1cccc(-c2cc(-c3nc(CN4CCN(C)CC4)no3)[nH]n2)c1 | 6.39
N#Cc1c(N)nc2c(c1-c1c[nH]nc1C1CCCCC1)COCC2 | 0.079
COc1ccc(C(C)n2ccnc2-c2cc3n(n2)CCCNC3)cc1F (centres undefined) | -0.853
COc1ccc(C(C(=O)O)N(C)CCN2CCOCC2)c(C)c1 (centres undefined) | -11.3
Cc1nc2c(N(CCC(N)=O)CCc3ccccc3)ncnc2o1 | 22
CCc1cc(NCC(N)=O)nc(N2CCCCC2)n1 | -8.82
Cc1ccccc1CN1CCNC(=O)C1CC(=O)NCC1CCCCC1 (centres undefined) | -7.5

SMILES | cytotoxicity at 70.5 h [%]
CC(=O)CN1CCC2(CC1)c1ccccc1[C@@H](N1CCSCC1)[C@@H]2O | -5.27
COc1cccc(NC(=O)NCC2CCCN(C3CCOCC3)C2)c1 (centres undefined) | -8.3
CCCS(=O)(=O)N[C@H]1CN(c2ncccc2C(N)=O)C[C@@H]1C(C)C | 0.22
CCN(C)S(=O)(=O)NCC1CCCN(Cc2ccccc2F)C1 (centres undefined) | -4.79
Cc1n[nH]c(C)c1CCCN(C)Cc1c[nH]nc1-c1ccc(F)cc1 | -4.19
CCNC(=O)[C@@H]1C[C@H](NC(=O)Cn2ccnc2)CN1Cc1ccsc1 | 14.3
CC(=O)N[C@H]1CCN(C(=O)c2cc(Cn3cnc4ccccc43)[nH]n2)C1 | -3.6
CC(C)n1cnnc1CN(C)C(=O)Cn1ccc2ccccc2c1=O | -8.95
O=C1NCC2=C1C(c1ccc(O)cc1)Nc1ccccc1N2 (centres undefined) | -6.66
Cc1noc(CN(C)CC2(O)CCCN(CCC3CCCCC3)C2=O)n1 (centres undefined) | -0.981
COCCNc1cc(-c2ccccc2CCN)c2cc[nH]c2n1 | -2.8
CS(=O)(=O)c1ccc(CN2CCCC3(C2)C(=O)Nc2ccccc23)cc1 (centres undefined) | 24.9
COc1cc(N2CCC(c3nccn3Cc3ccccc3)CC2)ncn1 | -1.15
CC(C)C1CN(C(=O)c2cn3cc(Cl)cnc3n2)CCCN1CC1CC1 (centres undefined) | 20.2
CN1CCc2[nH]nc(C(=O)N3CCCC4(CC3)CNC(=O)O4)c2C1 (centres undefined) | -3.37
CC(=O)N[C@@H](CC(C)C)C(=O)N1CCC(n2cc(CC(C)C)nn2)CC1 | 6.61
CN(C)C(C(=O)N1CC(Oc2ccccc2F)C1)c1ccccc1F (centres undefined) | 12.3
O=C(c1cncc(NCC2COc3ccccc3C2)n1)N1CCCCC1 (centres undefined) | 0.974
O=C(c1cccc2ccnn12)N1CCC[C@H]1CN1CCCC1 | 6.92
Cc1nc2c(c(NCc3nc4ccccc4s3)n1)CCNCC2 | -4.98
Cc1cc(C(=O)N(C)C2CCN(C)C2)c2ccc(F)cc2n1 (centres undefined) | 23.7
Cn1ncc2c(N3CCCC4(CCNC4)C3)nc(C(C)(C)C)nc21 (centres undefined) | -11.5

SMILES | cytotoxicity at 70.5 h [%]
COc1cccc(CC2(C(=O)O)CCN(c3ccc(Cl)cn3)CC2)c1 | -3.25
Cc1ccc(OCC2CCCN(C(=O)CCn3ccccc3=O)C2)cc1 (centres undefined) | 0.753
Cc1sc2nc(CCN)nc(N3CCN(S(C)(=O)=O)CC3)c2c1C | -8.4
CC(=O)Nn1c(C)cc(CN2CCC(c3ccncc3)CC2)c1C | -2.26
CCC(Nc1cccc(OC)c1)C(=O)N(CCOC)Cc1cnn(C)c1 (centres undefined) | -1.31
Cc1ncsc1CCN(C)Cc1cc2n(n1)CCN(Cc1ccco1)C2 | -16.9
CS(=O)(=O)N1C[C@@H]2CC[C@H](C1)N(CCC(=O)NCc1ccco1)C2 | 4.49
CC(C)CN1CC(c2nc(-c3ccc(F)cc3)c[nH]2)CC1=O (centres undefined) | -7.74
CC(C)(C)c1csc(CNC(=O)C2NCCc3[nH]cnc32)n1 (centres undefined) | -9.53
Cc1cccc(CN(C(=O)CCn2cncn2)C(C)C)c1 | -9.18
CN(C)c1ccc(CC(=O)N2C[C@H](C3CC3)[C@@H](N)C2)cc1 | 0.366
CN(CC(=O)N1CCOC(CCc2ccccc2)C1)Cc1ccccn1 (centres undefined) | -7.68
Cc1cc(NCCCc2c(C)noc2C)nc(N)n1 | -10.4
CCc1c(C)sc2ncnc(N3CCN(C4CCOCC4)CC3)c12 | -11.1
CCN(C(=O)c1c(Cl)cnn1CC)C(C)C(N)=O (centres undefined) | -11.3
COCCOCC(=O)N1C[C@H]2CC[C@@H]1CN(C1Cc3ccccc3C1)C2 | -9.96
COc1cc(Cl)cc(C(=O)N2CCC3(CCCNC3)C2)c1 (centres undefined) | -5.79
C[C@@H]1CN(C(=O)CCCN2CCOCC2)C[C@@]1(O)C1CC1 | -5.23
COCCN(Cc1cccc(OCCO)c1)Cc1ccccc1F | -2.88
COc1cc(C2CC(=O)Nc3c2nc2n3CCCC2)cc(OC)c1O (centres undefined) | -5.3
Cc1c(C(=O)N2CCC3(CCC(=O)N(CCN(C)C)C3)CC2)ccn1C | 0.579
CCc1nccn1CCC(=O)N1CCCC1c1ccc(F)cc1 (centres undefined) | -1.42

SMILES | cytotoxicity at 70.5 h [%]
CCOC(=O)c1n[nH]cc1CN1CCOC(Cc2ccc(F)cc2)C1 (centres undefined) | -3.8
Nc1nc2c(c(NCc3nc(-c4ccncc4)n[nH]3)n1)CCCC2 | -0.22
Cc1cc(C)n(CC(C)NCCn2nc(C)c(Cl)c2C)n1 (centres undefined) | 3.47
N#Cc1cccc(Oc2ccc(CN3CCCC3)cc2Cl)n1 | 18.1
Cn1cc(-c2c(C#N)c(N)nc3c2CCc2[nH]ccc2-3)cc1C#N | 16.7
O=C(c1cccc(CO)n1)N1CCCC1c1nc2cc(F)ccc2[nH]1 (centres undefined) | 16.2
CC(C)=CCC1(CO)CCCN(Cc2cnc(N3CCOCC3)nc2)C1 (centres undefined) | -6.39
CCn1ncc(C(=O)N2CCN(CC3CCCO3)CC2)c1C (centres undefined) | -0.538
CN(Cc1nccn1C)c1nccc(N2CCCC(O)C2)n1 (centres undefined) | 2.11
Cc1cncc(C(=O)N2CCCC(O)(CN(C)C)CC2)c1 (centres undefined) | 7.68
c1ccc(-c2noc(CCNC3CCOC4(CCOCC4)C3)n2)nc1 (centres undefined) | -8.03
O=C1CCC2(CCN(Cc3cscn3)CC2)CN1[C@H]1CC[C@H](O)CC1 | -13.1
Cc1nc(CN2CCC(Oc3ccc(F)cc3C)(C(=O)O)CC2)co1 | -2.54
C=C(C)CNCC1(O)CCCN(Cc2ccc(F)c(F)c2)C1=O (centres undefined) | -1.61
C=Cc1cccc(CN2C[C@H]3CC[C@@H]2CN(Cc2c(C)noc2C)C3)c1 | -0.99
CC(C)[C@H]1COC(=O)N1Cc1nnc(-c2ccccc2)o1 | -1.91
CCOC(=O)N1CCC(NC(C)Cc2cc(C)n[nH]2)CC1 (centres undefined) | -0.223
CN(C(=O)CCc1ccncc1)C1CCCN(CCc2ccccc2)C1 (centres undefined) | -7.17
CCN(C)CC(=O)N1CCCC(c2nnc(CN3CCOCC3)n2C)C1 (centres undefined) | -4.67
COc1ccc2nc(CNC(=O)c3cc(C(C)C)on3)[nH]c2c1 | -14.8
Cc1nc(CC(=O)N(C)C2CCCN(CCc3ccccc3)C2)cs1 (centres undefined) | -4.36
